# Data from patent US11590129B2, “Combination therapy with an antitumor alkaloid” (PHARMA MAR, S.A., priority 2010, dated 2023).
# How the values were obtained:
# [1] = tested on: MOLT-4 human leukemia cell line; assay: cells; conditions: Homo sapiens, MOLT-4, 72 h
# Protocol: (§1) Additional serial dilutions were prepared in serum-free culture medium to achieve a final 4× concentration. Aliquots of 50 μL of each diluted compound were added per well.
# (§2) JURKAT and MOLT-4 were the human leukemia cell lines selected for this assay, which were obtained from the American Type Culture Collection (ATCC).
# (§3) Briefly, cells were seeded in 96 well microtiter plates at a density of 50000 cells per well in 150 μL of culture medium and incubated for 4-6 hours in drug-free medium before treatment with vehicle alone or test compounds for 72 hours.
# (§4) After incubation, the cytotoxic effect was evaluated using a MTT reduction assay. 50 μL of MTT solution (1 mg/mL) were added to the wells and incubated for 15-17 hours at 37° C. until formazan crystals were formed. After gently removing the culture medium, DMSO was added to dissolve the insoluble purple formazan product into a colored solution. […] Results were expressed as percentage of control cell growth. The EC50 values (half-maximal effective concentration) used for the combination studies were calculated using Prism v5.02 software (GraphPad). EC50 was expressed as molar concentration and represented the mean of at least three independent assays.
# (§5) b. In a second set of experiments, concentration-response curves for the agents tested, both alone and in two-drug combination, were performed, using the same methodology described in the previous paragraph.
# (§6) Using these starting concentrations, constant serial dilutions were performed to generate the concentration-response curves for each set of drugs, alone and in combination.
# (§7) Based on this equation, the term “combination index” (CI) is used as a quantitative measure of the degree of drug interactions. […] CI values were calculated by solving the equation for different values of fa (i.e., for different degrees of cell groth inhibition).
# (§8) Data were analyzed using CalcuSyn software (Biosoft, Cambridge, UK). For statistical analysis and graphs Prism software (GraphPad, San Diego, USA) was used. All the results represent the mean of at least three independent experiments.
# [2] = tested on: JURKAT human leukemia cell line; assay: cells; conditions: Homo sapiens, Jurkat, 72 h
# Protocol: as §1, §2, §3, §4, §5, §6, §7, §8
# [3] = tested on: PC-3 human prostate cancer cell line; assay: cells; conditions: Homo sapiens, PC-3, 72 h
# Method in brief: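 Cells seeded at 5,000/well, grown 24 h drug-free, then exposed to vehicle or test compounds for 72 h. Viability by MTT reduction (8 h, 37 °C), formazan dissolved in DMSO. Values given as percentage of control cell growth.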
# [4] = tested on: U87-MG tumors; assay: Human brain tumor xenografts (U87-MG) in athymic nude mice, tumor volume % T/C; assay type: in vivo
# Protocol: Female athymic nude mice (Harlan Laboratories Models, S.L. (Barcelona, Spain) were utilized for all experiments. Animals were housed in individually ventilated cages, up to ten per cage in a 12-hour light-dark cycle at 21-23° C. and 40-60% humidity. The mice were allowed free access to irradiated standard rodent diet and sterilized water. Animals were acclimated for at least 5 days prior to tumor implantation with a tumor cell suspension.
# The tumor model used in these studies was U87-MG cell line, which was obtained from the American Type Culture Collection (ATCC HTB-14™).
# U87-MG cells were grown at 37° C. with 5% CO2 in Minimum Essential Medium Eagle (MEME). Each animal was subcutaneously implanted on the right flank, using 26G needle and a 1 cc syringe, with 5×10^6 U87-MG cells, from in vitro passage 5, in 0.05 mL suspension of 50% Matrigel and 50% serum free medium, without antibiotics.
# PM01183 was provided in the form of vials of lyophilized PM01183 cake which was reconstituted with water for infusion to a concentration of 0.2 mg/mL. The PM01183 stock solution was further diluted in 5% glucose solution for injection to the dosing formulation concentrations. Temozolomide was provided as a solution prepared by diluting the product in DMSO 10% in 0.9% saline solution for injection to the target final concentration.
# In these experiments, PM01183 and temozolomide treatments, as well as placebo, were administered as follows: PM01183, intravenously once per week up to 3 consecutive weeks, on Days 0, 7 and 14, temozolomide orally, in a daily basis during 8 consecutive days (Days 0 to 7), and placebo was administered following the same schedule as those provided for PM01183 and temozolomide. Dose level groups were administered either as single agents or in combination.
# Comparison of the median tumor volume in the treatment groups (T) to the median tumor volume in the control group (T/C×100%) was used for evaluation of the antitumor efficacy.
smiles,measurement,setting,value
COc1ccc2[nH]c3c(c2c1)CCN[C@]31CS[C@@H]2c3c(OC(C)=O)c(C)c4c(c3[C@H](COC1=O)N1[C@@H]2[C@H]2c3c(cc(C)c(OC)c3O)C[C@@H]([C@@H]1O)N2C)OCO4 [PM01183],EC50,[1],0.857 nM
same,EC50,[2],1.55 nM
same,IC50,[3],2.6 nM
same,% T/C on day 0,[4]; PM01183 0.045 mg/kg,98.2%
same,% T/C on day 2,[4]; PM01183 0.045 mg/kg,101.0%
same,% T/C on day 4,[4]; PM01183 0.045 mg/kg,80.4%
same,% T/C on day 7,[4]; PM01183 0.045 mg/kg,83.8%
same,% T/C on day 9,[4]; PM01183 0.045 mg/kg,78.8%
same,% T/C on day 11,[4]; PM01183 0.045 mg/kg,77.7%
same,% T/C on day 14,[4]; PM01183 0.045 mg/kg,76.7%
same,% T/C on day 16,[4]; PM01183 0.045 mg/kg,82.5%
same,% T/C on day 0,[4]; PM01183 0.09 mg/kg,97.9%
same,% T/C on day 2,[4]; PM01183 0.09 mg/kg,99.5%
same,% T/C on day 4,[4]; PM01183 0.09 mg/kg,74.4%
same,% T/C on day 7,[4]; PM01183 0.09 mg/kg,85.1%
same,% T/C on day 9,[4]; PM01183 0.09 mg/kg,69.4%
same,% T/C on day 11,[4]; PM01183 0.09 mg/kg,71.8%
same,% T/C on day 14,[4]; PM01183 0.09 mg/kg,74.1%
same,% T/C on day 16,[4]; PM01183 0.09 mg/kg,73.5%
same,% T/C on day 0,[4]; PM01183 0.135 mg/kg,98.5%
same,% T/C on day 2,[4]; PM01183 0.135 mg/kg,90.5%
same,% T/C on day 4,[4]; PM01183 0.135 mg/kg,61.2%
same,% T/C on day 7,[4]; PM01183 0.135 mg/kg,71.3%
same,% T/C on day 9,[4]; PM01183 0.135 mg/kg,67.7%
same,% T/C on day 11,[4]; PM01183 0.135 mg/kg,65.3%
same,% T/C on day 14,[4]; PM01183 0.135 mg/kg,64.2%
same,% T/C on day 16,[4]; PM01183 0.135 mg/kg,63.6%
same,% T/C on day 0,[4]; PM01183 0.18 mg/kg,99.8%
same,% T/C on day 2,[4]; PM01183 0.18 mg/kg,95.5%
same,% T/C on day 4,[4]; PM01183 0.18 mg/kg,64.8%
same,% T/C on day 7,[4]; PM01183 0.18 mg/kg,63.2%
same,% T/C on day 9,[4]; PM01183 0.18 mg/kg,52.0%
same,% T/C on day 11,[4]; PM01183 0.18 mg/kg,44.1%
same,% T/C on day 14,[4]; PM01183 0.18 mg/kg,38.5%
same,% T/C on day 16,[4]; PM01183 0.18 mg/kg,37.1%
